Data as given in PMC10742472, “Synthesis and Characterisation of Platinum(II) Diaminocyclohexane Complexes with Pyridine Derivatives as Anticancer Agents” (International Journal of Molecular Sciences, 2023).

Legend:
U87 (Glioblastoma) = experiment: MTT cytotoxicity assay, U87; assay type: cell-based; conditions: 72 h exposure
H460 (Lung) = experiment: MTT cytotoxicity assay, H460; assay type: cell-based; conditions: 72 h exposure
Du145 (Prostate) = experiment: MTT cytotoxicity assay, Du145; assay type: cell-based; conditions: 72 h exposure
MCF-7 (Breast) = experiment: MTT cytotoxicity assay, MCF-7; assay type: cell-based; conditions: 72 h exposure
HT29 (Colon) = experiment: MTT cytotoxicity assay, HT29; assay type: cell-based; conditions: 72 h exposure
BE2-C (Neuroblastoma) = experiment: MTT cytotoxicity assay, BE2-C; assay type: cell-based; conditions: 72 h exposure
SJ-G2 (Glioblastoma) = experiment: MTT cytotoxicity assay, SJ-G2; assay type: cell-based; conditions: 72 h exposure
A431 (Skin) = experiment: MTT cytotoxicity assay, A431; assay type: cell-based; conditions: 72 h exposure
Calf-thymus DNA (ctDNA) = experiment: Fluorescent intercalator displacement (FID) ctDNA binding assay with ethidium bromide; parameters: Ka (binding coefficient) / KF (binding constant for fluorescence) / Kq (bimolecular quenching constant) / KSV (Stern–Volmer quenching constant): unit not given here; conditions: 75 µM ethidium bromide, 150 µM ctDNA, pH 7.0
Method: To achieve this, the fluorescent signal of a DNA intercalator, in this case, ethidium bromide (EtBr), is measured as increasing concentrations of PC are added. As the PC displaces the EtBr, the fluorescence of the mixture is diminished, and the DNA binding capacity of the complex can be calculated from the fluorescence measurement. Calf-thymus DNA (ctDNA) was used and saturated with EtBr. The change in fluorescence is monitored as the complex is titrated into this solution. Once the decrease in fluorescence plateaued, the titration was ended. […] The fluorescence was measured from 550-750 nm and excited at 480 nm. Importantly, the cuvette was inverted four times, and the solution was incubated for 3 min after the addition of […] to allow adequate time for the PCs to interact with the DNA before scanning. […] A plot of F0/F against [PC] using experimental values allowed the determination of Kq and KSV from the slope as per Equation (5). (5) […] where n is the number of ethidium ligands that are displaced per PC. It is important to note that this expression is a simplification of the true binding interaction, as it ignores the effect of EtBr on the binding equilibrium. […] A plot of Log10[(F0 - F)/F)] against Log10[PC] was used to determine KF and n from the intercept and slope, respectively.

MCF10A (Breast, Normal) = experiment: MTT cytotoxicity assay, MCF10A non-cancer breast cells; assay type: cell-based; conditions: 72 h exposure
MIA (Pancreas) = experiment: MTT cytotoxicity assay, MIA; assay type: cell-based; conditions: 72 h exposure
[1] = assay type: physicochemical
Method: Lipophilicity was calculated using RP-HPLC. A stock solution of each PC was injected at different isocratic ratios ranging from 70–90% solvent B (organic) at a flow rate of 1 mL·min^−1 [32, 33, 34]. The complexes have low solubility in water, often requiring DMSO to make concentrated solutions. Yet the LogK’ calculated using these experimental data indicated high lipophilicity, which is typical for 2+ charged complexes. […] When heat was applied, they would not precipitate out of the solution after cooling. This confirmed that a lack of persistence was the cause of the “observed” low solubility in H2O. […] Their increased lipophilicity may indicate they have the potential to be administered orally, a characteristic usually associated with Pt(IV) complexes. Other factors, such as stability and cellular absorption, would need to be considered before the potential of these Pt(II) anticancer agents could be evaluated.
Lipophilicity was evaluated using RP-HPLC, whereby LogKw is calculated by injecting a stock solution of the PC at different isocratic ratios ranging from 70–90% solvent B (organic) at a flow rate of 1 mL·min^−1. An Agilent Technologies 1260 Infinity machine equipped with a Phenomenex Onyx™ Monolithic C18 reverse phase column (100 × 4.6 mm, 130 Å) was used to determine purity. The mobile phase comprised 0.06% TFA in water (solvent A) and 0.06% TFA in 90:10 ACN:H2O mixture (solvent B). The PC peak was eluted outside the dead zero volume time to avoid inaccurate results. The dead zero volume time was determined using potassium iodide as an external dead volume marker, with further details in the Supplementary Materials. The subsequent peaks were recorded, and K was calculated using Equation (6). (6) K=tr−t0/t0 where K is the capacity factor, tr is the retention time of the analyte, and t0 is the dead time determined using a solution of KI in the same column. At least five different isocratic ratios were used to assess each PC, and each experiment was repeated three times. LogK’ was then calculated and plotted against the concentration of ACN in the mobile phase. […] (7) LogK^′=Sφ+LogKw where S is the slope, φ is the concentration of ACN in the mobile phase, and LogKw represents the capacity factor of the compound in 100% water (Figure S49).

| Molecule | GI50 (U87 (Glioblastoma)) [µM] | GI50 (H460 (Lung)) [µM] | GI50 (Du145 (Prostate)) [µM] | GI50 (MCF-7 (Breast)) [µM] | GI50 (HT29 (Colon)) [µM] | GI50 (BE2-C (Neuroblastoma)) [µM] | GI50 (SJ-G2 (Glioblastoma)) [µM] | GI50 (A431 (Skin)) [µM] | Binding Stoichiometry (Calf-thymus DNA (ctDNA)) | KF (binding constant for fluorescence) (Calf-thymus DNA (ctDNA)) | KSV (Stern–Volmer quenching constant) (Calf-thymus DNA (ctDNA)) | Ka (binding coefficient) (Calf-thymus DNA (ctDNA)) | Kq (bimolecular quenching constant) (Calf-thymus DNA (ctDNA)) | n (molar equivalents of PC at the point of intersection) (Calf-thymus DNA (ctDNA)) | ΔFsat (change in fluorescence at the point of binding) (Calf-thymus DNA (ctDNA)) | GI50 (MCF10A (Breast, Normal)) [µM] | GI50 (MIA (Pancreas)) [µM] | Lipophilicity [1] |
| --- | --- | --- | --- | --- | --- | --- | --- | --- | --- | --- | --- | --- | --- | --- | --- | --- | --- | --- |
| N.N.[Cl][Pt][Cl] [Cisplatin, reference compound] | 4 ± 1.1 | 2.4 ± 0.3 | 1.9 ± 0.2 | 6.5 ± 0.8 | 11 ± 1.9 | 0.4 ± 0.1 | 7.5 ± 1.3 | 1.2 ± 0.1 | – | – | – | – | – | – | – | – | – | – |
| [Cl][Pt][Cl].c1ccc(C2CCCN2)nc1 (stereo not drawn) [Complex 1, [Pt(PyPy)(Cl)2]] | 36 ± 1.5 | 16 ± 1.7 | > 50 | 30 ± 1 | 53 ± 1 | > 50 | > 50 | > 50 | 3.61 | 2.69 × 10^3 | 1.65 × 10^3 | 5.05 × 10^4 | 0.40 × 10^3 | 0.91 | 99.1 | > 50 | > 50 | – |
| [Cl][Pt][Cl].c1ccc(-c2ncc[nH]2)nc1 [Complex 2, [Pt(ImPy)(Cl)2]] | 30 ± 2 | 4 ± 1 | 36 ± 1.3 | 25 ± 2.3 | 34 ± 2 | 37 ± 4 | 14 ± 0.17 | 42 ± 3.5 | 3.82 | 3.12 × 10^3 | 1.68 × 10^3 | 2.75 × 10^4 | 0.50 × 10^3 | 1.18 | 80.9 | 13 ± 0.6 | 29 ± 2.3 | – |
| [Cl][Pt][Cl].c1ccc(-c2nc3ccccc3[nH]2)nc1 [Complex 3, [Pt(BImPy)(Cl)2]] | 37 ± 2 | 15 ± 3.1 | > 50 | 12 ± 1.2 | > 50 | > 50 | 42 ± 1.5 | 47 ± 2.5 | 3.40 | 3.72 × 10^3 | 2.18 × 10^3 | 5.10 × 10^4 | 0.51 × 10^3 | 1.24 | 110.3 | 45 ± 3.2 | > 50 | – |
| N[C@H]1CCCC[C@@H]1N.[Pt+2].c1ccc(C2CCCN2)nc1 [Complex 4a, [Pt(2-pyrrolidin-2-yl pyridine)(1S,2S-(+)-diaminocyclohexane)]^2+] | 48 ± 2.6 | 4.4 ± 0.7 | 47 ± 1.7 | 3.2 ± 0.6 | > 50 | 37.5 ± 0.5 | 17 ± 1.9 | 9 ± 2.3 | 1.48 | 6.20 × 10^3 | 4.16 × 10^3 | 1.06 × 10^4 | 0.83 × 10^3 | 1.83 | 135.0 | 42 ± 3 | 12 ± 1 | 2.68 ± 0.02 |
| N[C@H]1CCCC[C@@H]1N.[Pt+2].c1ccc(-c2ncc[nH]2)nc1 [Complex 5a, [Pt(2-(1H-Imidazol-2-yl)pyridine)(1S,2S-(+)-diaminocyclohexane)]^2+] | 0.036 ± 0.009 | 0.29 ± 0.05 | 0.29 ± 0.07 | 0.15 ± 0.03 | 0.56 ± 0.1 | 0.21 ± 0.04 | 2.7 ± 0.46 | 0.37 ± 0.06 | 0.80 | 3.16 × 10^3 | 2.11 × 10^3 | 5.89 × 10^4 | 0.36 × 10^3 | 0.87 | 122.4 | 0.15 ± 0.03 | 0.43 ± 0.07 | 2.50 ± 0.02 |
| N[C@H]1CCCC[C@@H]1N.[Pt+2].c1ccc(-c2nc3ccccc3[nH]2)nc1 [Complex 6a] | 0.034 ± 0.003 | 0.26 ± 0.04 | 0.3 ± 0.04 | 0.16 ± 0.03 | 0.45 ± 0.02 | 0.19 ± 0.02 | 2.7 ± 0.29 | 0.36 ± 0.05 | 0.84 | 2.94 × 10^3 | 2.12 × 10^3 | 0.66 × 10^4 | 0.30 × 10^3 | 0.71 | 116.7 | 0.15 ± 0.01 | 0.3 ± 0.03 | 2.42 ± 0.02 |
| [Pt(2-(1H-Imidazol-2-yl)pyridine)(1R,2R-(+)-diaminocyclohexane)]^2+ [Complex 5b] | 0.05 ± 0.01 | 0.37 ± 0.05 | 0.44 ± 0.07 | 0.3 ± 0.07 | 0.75 ± 0.07 | 0.3 ± 0.05 | 4.5 ± 0.6 | 0.49 ± 0.07 | 0.78 | 3.66 × 10^3 | 2.54 × 10^3 | 3.15 × 10^4 | 0.41 × 10^3 | 0.95 | 165.9 | 0.22 ± 0.03 | 0.56 ± 0.11 | – |
| [Pt(2-(2-pyridyl)benzimidazole)(1R,2R-(+)-diaminocyclohexane)]^2+ [Complex 6b] | 7.6 ± 0.46 | 16 ± 1.2 | 22 ± 1.5 | 8 ± 1.6 | 33 ± 1.2 | 30 ± 2.1 | 38 ± 5.9 | 24 ± 2.6 | 0.94 | 2.84 × 10^3 | 2.07 × 10^3 | 7.43 × 10^4 | 0.30 × 10^3 | 0.67 | 113.0 | 17 ± 1.5 | 30 ± 6.9 | 2.46 ± 0.025 |
| [Pt(2-pyrrolidin-2-yl pyridine)(1R,2R-(+)-diaminocyclohexane)]^2+ [Complex 4b] | 43 ± 0.67 | 31 ± 0.88 | > 50 | 12.5 ± 0.76 | > 50 | 31 ± 1.2 | > 50 | 30 ± 4.7 | 1.17 | 5.77 × 10^3 | 3.85 × 10^3 | 1.40 × 10^4 | 0.74 × 10^3 | 1.68 | 121.0 | 45 | 43 ± 1 | – |
